Measurements: patent publication US12624034B2, “Non-covalent modifiers of AKT1 and uses thereof” (Terremoto Biosciences, Inc., priority 2023, dated 2026)
Like-named read-outs stand apart in the source and are kept apart here.

Assays:
AKT1 WT = molecular target: T1, AKT1 WT (Homo sapiens, UniProt P31749); assay: Live cell AKT1 WT target engagement by NanoBRET competitive probe displacement in HEK293 cells; assay type: binding; details: 2 h at 37° C., read-out: AKT1 WT IC50
T1 construct: expressed in transfected cells; host or cells: HEK293
T1 sequence (P31749 whole entry): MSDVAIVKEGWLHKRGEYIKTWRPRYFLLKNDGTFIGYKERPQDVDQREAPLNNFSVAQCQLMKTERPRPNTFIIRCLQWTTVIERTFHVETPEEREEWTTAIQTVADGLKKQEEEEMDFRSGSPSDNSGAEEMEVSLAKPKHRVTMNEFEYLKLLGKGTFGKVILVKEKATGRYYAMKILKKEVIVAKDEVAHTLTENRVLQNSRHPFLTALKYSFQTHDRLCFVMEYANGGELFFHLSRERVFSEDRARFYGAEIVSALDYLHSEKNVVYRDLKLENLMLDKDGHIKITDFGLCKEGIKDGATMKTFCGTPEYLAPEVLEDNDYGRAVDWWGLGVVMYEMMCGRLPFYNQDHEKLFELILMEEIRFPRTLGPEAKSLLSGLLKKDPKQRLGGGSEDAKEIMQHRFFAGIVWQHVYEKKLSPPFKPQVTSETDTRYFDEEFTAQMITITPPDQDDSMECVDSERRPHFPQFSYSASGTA
Method: (§1) Determining live cell AKT1 E17K, AKT1 WT, and AKT2 target engagement by NanoBRET competitive probe displacement. […] Briefly, HEK293 cells were transfected with plasmids encoding kinase-NanoLuciferase fusion proteins overnight. Cells were then treated with serial dilutions of compound and an ˜EC50 concentration of fluorescently-tagged ATP-competitive tracer (Promega). After incubation for 2 h at 37° C., luciferase substrate and extracellular luciferase inhibitor were added to all wells, and luminescent intensity at 460 nm and 600 nm were measured on a multimode plate-reader. The ratio of E600/E460 was calculated to give the tracer engagement signal (BRET). IC50 values were calculated by fitting BRET values to a log(inhibitor) vs. response Hill equation.

AKT2 = molecular target: T2, AKT2 (Homo sapiens, UniProt P31751); assay: Live cell AKT2 target engagement by NanoBRET competitive probe displacement in HEK293 cells; assay type: binding; details: 2 h at 37° C., read-out: AKT2 IC50
T2 construct: expressed in transfected cells; host or cells: HEK293
T2 sequence (P31751 whole entry): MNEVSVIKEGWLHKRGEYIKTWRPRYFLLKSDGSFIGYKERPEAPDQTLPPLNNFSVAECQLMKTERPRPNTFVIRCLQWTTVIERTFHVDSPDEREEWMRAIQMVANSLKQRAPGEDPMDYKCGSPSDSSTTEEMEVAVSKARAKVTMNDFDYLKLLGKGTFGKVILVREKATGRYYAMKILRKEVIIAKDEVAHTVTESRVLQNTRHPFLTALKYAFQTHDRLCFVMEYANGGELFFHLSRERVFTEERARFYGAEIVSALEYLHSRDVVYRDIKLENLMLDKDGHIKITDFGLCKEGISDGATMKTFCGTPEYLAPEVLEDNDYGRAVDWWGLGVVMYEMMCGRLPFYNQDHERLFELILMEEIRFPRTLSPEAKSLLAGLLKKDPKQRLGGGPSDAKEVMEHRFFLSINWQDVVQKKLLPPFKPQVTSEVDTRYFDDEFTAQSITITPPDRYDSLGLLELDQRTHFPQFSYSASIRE
Method: as §1

[1] = NanoBRET competitive probe displacement, live HEK293 cells
[2] = NanoBRET live cell target engagement, HEK293 cells

SMILES	IC50 (AKT1 WT; [1])	IC50 (AKT2; [1])	IC50 (AKT1 WT; [2])	IC50 (AKT2; [2])
Nc1ncccc1-c1nc2ccc(-n3ccc(OC(F)F)n3)nc2n1-c1ccc2c(c1)CC[C@@H]2NC1CCN(C(=O)C2CC2)CC1 [Compound 483]	30.9 nM	7440 nM	–	–
Cc1nc(C(F)F)sc1C(=O)N[C@H]1CCc2cc(-n3c(-c4cccnc4N)nc4ccc(-n5nccn5)nc43)ccc21 [Compound 541]	5.46 nM	556 nM	–	–
Cn1nccc1Cc1nncn1[C@H]1CCc2cc(-n3c(-c4cccnc4N)nc4ccc(-n5cccn5)nc43)ccc21 [Compound 222]	–	–	146 nM	1400 nM
Nc1ncccc1-c1nc2ccc(-n3ncc(C4CC4)n3)nc2n1-c1ccc2c(c1)CC[C@@H]2NC(=O)c1cnc(C(F)F)s1 [Compound 588]	27 nM	764 nM	–	–
CCOc1ccn(-c2ccc3nc(-c4cccnc4N)n(-c4ccc5c(c4)CC[C@@H]5NC4CCN(C(=O)C5CC5)CC4)c3n2)n1 [Compound 486]	25.1 nM	1070 nM	–	–
Cc1nnc(-c2ccc3nc(-c4cccnc4N)n(-c4ccc5c(c4)CC[C@@H]5NC4CCN(C(=O)C5CC5)CC4)c3n2)s1 [Compound 516]	102 nM	6240 nM	–	–
Cc1ccc(C(=O)N[C@H]2CCc3cc(-n4c(-c5cccnc5N)nc5ccc(-c6nc(C)cs6)nc54)ccc32)cn1 [Compound 300]	–	–	3.32 nM	8.47 nM
Cc1ccc(C(=O)N[C@H]2CC(F)(F)c3cc(-n4c(-c5cccnc5N)nc5ccc(-n6cccn6)nc54)ccc32)cn1 [Compound 299]	–	–	> 1000 nM	> 10000 nM
Cc1ncccc1C(=O)N[C@H]1CCc2cc(-n3c(-c4cccnc4N)nc4ccc(C5CC5)nc43)ccc21 [Compound 129]	–	–	111 nM	> 10000 nM
Cc1ccc(C(=O)N[C@H]2CCc3cc(-n4c(-c5cccnc5N)nc5ccc(-n6cnc(C(F)F)n6)nc54)ccc32)cn1 [Compound 430]	83.5 nM	2490 nM	–	–
CN1CC(C#Cc2ccc3nc(-c4cccnc4N)n(-c4ccc5c(c4)CC[C@@H]5NC(=O)c4ccc(C(F)F)nc4)c3n2)C1 [Compound 411, (S)—N-(5-(2-(2-aminopyridin-3-yl)-5-((1-methylazetidin-3-yl)ethynyl)-3H-imidazo[4,5-b]pyridin-3-yl)-2,3-dihydro-1H-inden-1-yl)-6-(difluoromethyl)nicotinamide]	976 nM	> 10000 nM	–	–
Nc1ncccc1-c1nc2ccc(-n3ccc(C4CC4)n3)nc2n1-c1ccc2c(c1)CC[C@@H]2NC1CCN(C(=O)C2CC2)CC1 [Compound 442]	72.6 nM	1600 nM	–	–
Cc1ncccc1C(=O)N[C@@H]1c2ccc(-n3c(-c4cccnc4N)nc4ccc(-n5cccn5)nc43)cc2CC1F (stereo partly drawn) [Compound 147]	–	–	19.6 nM	131 nM
Nc1ncccc1-c1nc2ccc(-n3nccn3)nc2n1-c1ccc2c(c1)CC(F)[C@@H]2NC1CCN(C(=O)C2CC2)CC1 (stereo partly drawn) [Compound 532]	177 nM	> 10000 nM	–	–
Cc1ccc(C(=O)N[C@H]2CCc3cc(-n4c(-c5cccnc5N)nc5ccc(-c6ncco6)nc54)ccc32)cn1 [Compound 223]	–	–	38.7 nM	586 nM
Nc1ncccc1-c1nc2ccc(C3CC3)nc2n1-c1ccc2c(c1)CC[C@@H]2NC(=O)c1ccc(C(F)F)nc1 [Compound 130]	–	–	46.4 nM	2290 nM
Cn1ncc(-c2ccc3nc(-c4cccnc4N)n(-c4ccc5c(c4)CC[C@@H]5n4ccnn4)c3n2)n1 [Compound 247]	–	–	60.4 nM	1570 nM
COc1ccn(-c2ccc3nc(-c4cccnc4N)n(-c4ccc5c(c4)CC[C@@H]5NC4[C@@H]5COC[C@H]4CN(C(=O)C4CC4)C5)c3n2)n1 (single isomer, unassigned) [Compound 524]	48.4 nM	1740 nM	–	–
CN(C)C(=O)c1ccn(-c2ccc3nc(-c4cccnc4N)n(-c4ccc5c(c4)CC[C@@H]5NC4CCN(C(=O)C5CC5)CC4)c3n2)n1 [Compound 591]	25.2 nM	962 nM	–	–

The next lines start with the values.

IC50 (AKT1 WT; [1])	IC50 (AKT2; [1])	IC50 (AKT1 WT; [2])	IC50 (AKT2; [2])	SMILES
2.77 nM	15.3 nM	–	–	Nc1ncccc1-c1nc2ccc(-n3ccc(OC(F)F)n3)nc2n1-c1ccc2c(c1)CC[C@@H]2NC(=O)c1ccc(C2CC2)nc1 [Compound 537]
10.4 nM	196 nM	–	–	COc1cc2c(cn1)CCC2N[C@H]1CCc2cc(-n3c(-c4cccnc4N)nc4ccc(-n5cccn5)nc43)ccc21 (stereo partly drawn) [Compound 511]
25.3 nM	795 nM	–	–	Cc1nnsc1C(=O)N[C@H]1CCc2cc(-n3c(-c4cccnc4N)nc4ccc(-n5cccn5)nc43)ccc21 [Compound 438]
43 nM	620 nM	–	–	Nc1ncccc1-c1nc2ccc(-n3cccn3)nc2n1-c1ccc2c(c1)CC[C@@H]2NC1CCc2cc(O)ccc21 (stereo partly drawn) [Compound 498]
–	–	178 nM	4500 nM	Nc1ncccc1-c1nc2ccc(-n3cccn3)nc2n1-c1ccc2c(c1)CC[C@@H]2NC1COC1 [Compound 111]
–	–	9.1 nM	57.7 nM	Nc1ncccc1-c1nc2ccc(-n3cccn3)nc2n1-c1ccc2c(c1)CC[C@@H]2NC(=O)c1cnc2ccnn2c1 [Compound 238]
–	–	7.58 nM	60.2 nM	Nc1ncccc1-c1nc2ccc(-n3cccn3)nc2n1-c1ccc2c(c1)CC[C@@H]2NC(=O)c1cccc(F)c1 [Compound 332]
–	–	78.4 nM	3680 nM	Cn1ccc(C#Cc2ncccc2C(=O)N[C@H]2CCc3cc(-n4c(-c5cccnc5N)nc5ccc(-n6cccn6)nc54)ccc32)n1 [Compound 181]
–	–	10.6 nM	83.1 nM	Nc1ncccc1-c1nc2ccc(-n3cccn3)nc2n1-c1ccc2c(c1)CC[C@@H]2n1cc(-c2cccnc2)nn1 [Compound 199]
–	–	17.9 nM	181 nM	Nc1ncccc1-c1nc2ccc(-n3cccn3)nc2n1-c1ccc2c(c1)CC[C@@H]2NC(=O)c1ccc2cccn2c1 [Compound 328]
–	–	43.9 nM	979 nM	Nc1ncccc1-c1nc2ccc(-n3cccn3)nc2n1-c1ccc2c(c1)CC[C@@H]2N1CCCCC1 [Compound 342, (S)-3-(3-(1-(piperidin-1-yl)-2,3-dihydro-1H-inden-5-yl)-5-(1H-pyrazol-1-yl)-3H-imidazo[4,5-b]pyridin-2-yl)pyridin-2-amine]
–	–	89.6 nM	5850 nM	Cc1ncccc1S(=O)(=O)N[C@H]1CCc2cc(-n3c(-c4cccnc4N)nc4ccc(-n5cccn5)nc43)ccc21 [Compound 139]
–	–	80.8 nM	4750 nM	Cc1cn([C@H]2CCc3cc(-n4c(-c5cccnc5N)nc5ccc(-n6cccn6)nc54)ccc32)nn1 [Compound 304]
–	–	11.2 nM	109 nM	C#Cc1cc(C(=O)N[C@H]2CCc3cc(-n4c(-c5cccnc5N)nc5ccc(-n6cccn6)nc54)ccc32)ccn1 [Compound 105]
–	–	7.74 nM	82.9 nM	CC#Cc1cc(C(=O)N[C@H]2CCc3cc(-n4c(-c5cccnc5N)nc5ccc(-n6cccn6)nc54)ccc32)ccn1 [Compound 171, (S)—N-(5-(2-(2-aminopyridin-3-yl)-5-(1H-pyrazol-1-yl)-3H-imidazo[4,5-b]pyridin-3-yl)-2,3-dihydro-1H-inden-1-yl)-2-(prop-1-yn-1-yl)isonicotinamide]
81.5 nM	> 10000 nM	–	–	Nc1ncccc1-c1nc2ccc(-n3cccn3)nc2n1-c1ccc2c(c1)CC[C@H]2NC1CCN(C(=O)C2CC2)CC1 [Compound 500]
–	–	23.1 nM	502 nM	COc1cc(C(=O)N[C@H]2CCc3cc(-n4c(-c5cccnc5N)nc5ccc(-n6cccn6)nc54)ccc32)nn1C(F)F [Compound 324]
